Where a SMILES comes first, the peptide text is derived from it. [ ]: non-standard residue; d: D form. The star is where a group is joined. Sta = CC(C)C[C@H](N)[C@@H](O)CC(=O)O; Isovaleryl = CC(C)CC(=O)*
Legend:
Assay type in all cases: biochemical
[1] = target: human brain P-2 enzyme (peak B), aspartic protease identified as cathepsin D (Homo sapiens, UniProt P07339); test: N-dansyl peptide (SEQ ID NO: 7) peptidase assay with HPLC detection, P-2 enzyme (peak B); details: pepstatin A 213 uM; P-2 enzyme 17.5 ug/ml, N-Dansyl-peptide 24 uM, pH 5.0, 37 C; Figure 10
Chain of human brain P-2 enzyme (peak B), aspartic protease identified as cathepsin D (P07339 with tags, fused parts or gaps): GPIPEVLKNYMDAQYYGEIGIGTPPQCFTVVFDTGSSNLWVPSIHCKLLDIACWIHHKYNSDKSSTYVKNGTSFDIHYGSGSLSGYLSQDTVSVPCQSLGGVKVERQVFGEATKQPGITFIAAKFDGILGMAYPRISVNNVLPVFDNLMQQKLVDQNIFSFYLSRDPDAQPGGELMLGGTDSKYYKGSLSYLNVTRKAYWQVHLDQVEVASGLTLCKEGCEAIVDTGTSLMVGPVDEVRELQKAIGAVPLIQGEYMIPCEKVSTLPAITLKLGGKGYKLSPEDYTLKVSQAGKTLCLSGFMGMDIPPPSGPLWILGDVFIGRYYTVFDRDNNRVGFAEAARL
Procedure: (§1) Reactions (30 ul) were initiated at 37 C by enzyme/inhibitor addition thereby achieving the following t=0 component concentrations: Cathepsin D (2.8 ug/ml), or P-2 enzyme from figure 6 (17.5 ug/ml), N-Dansyl-peptide (24 uM), captopril (0.3 mM) in a cocktail buffer comprising 130 mM in each of acetate, Mes and Tris pH 5.0. Samples contained either pepstatin A (213 uM in 3% v/v final methanol) or an equivalent final concentration of methanol only. At 0, 2, 4, 8 and 24hr, reactions were terminated by addition of 12 % (v/v) TFA (10 ul) and subject to HPLC analysis according to example 2 and 3.
(§2) • i) Incubations. […] Incubation with ion-exchange fractions was performed at 37°C for 24 hrs, after which reactions were terminated by adjusting to 3% (v/v) final in TFA. • ii) HPLC quantification of proteolytic products. HPLC analysis was performed using a Hewlet-Packard HP1090 complete with binary solvent delivery, heated column compartment, and auto injector.

[2] = target: human cathepsin D (human liver, Cal Biochem, catalog # 219401) (Homo sapiens, UniProt P07339); test: N-dansyl peptide (SEQ ID NO: 7) peptidase assay with HPLC detection, cathepsin D; details: pepstatin A 213 uM; cathepsin D 2.8 ug/ml, N-Dansyl-peptide 24 uM, pH 5.0, 37 C; Figure 10
Chain of human cathepsin D (human liver, Cal Biochem, catalog # 219401) (P07339 with tags, fused parts or gaps): as above
Procedure: as §1, §2

[3] = test system: human brain P-2 derived aprotinin binding pool Y protease (chymotryptic-like serine protease); test: Immunoblot assay of APP degradation by the pool Y serine protease; details: 400 uM pepstatin in methanol; pool Y 14 ug/ml, APP 35 nM, Mes pH 6.5, 4 hr; Figure 18a
Procedure: Reactions were initiated at 37°C by enzyme addition to achieve the following initial component concentrations in a 16 ul volume: pool Y # 3-5 (14 ug/ml) after purification on a superdex 75 column, APP (35 nM), in 30 mM Mes buffer pH 6.5. Reactions were terminated by addition of 7.5 ul of 3X sample buffer. Immunoblots were developed using the rabbit antiserum to the APP C-terminal domain according to example 8. […] The following controls were also run: no inhibitor (lane 12), ethanol (lane 3), methanol (lane 5), pool Y only (lane 2), APP only at time zero (lane 13) and 4 hr (lane 14). Lanes 1 and 7 respectively show prestained Mr markers and the C-100 standard. Panel (b) 1.8 uM alpha-1-antichymotrypsin (lane 2), 156 uM TLCK (lane 3), 46 uM chymotrypsin inhibitor I (lane 4), 119 uM chymotrypsin inhibitor II (lane 5), 4 uM alpha-2-antiplasmin (lane 6), 51 uM alpha-1-antitrypsin (lane 7), 98 uM chymostatin administered in DMSO (lane 10), 153 uM methanolic TPCK (lane 12). Controls included: no inhibitor (lane 8), DMSO (lane 11), and methanol (lane 13). Pre-stained molecular weight markers and C-100 standards were applied to lanes 1 and 9 respectively. Incubation times of 4 and 2 hr were used in panels a) and b) respectively.
• i) Sub-cellular fractionation. This was performed essentially as described in Method 1, above. • ii) Solubilization. This was performed essentially as described in Method 1, above. • iii) Aprotinin-sepharose chromatography. Soluble (230 mg), P-2 (216 mg) or microsomal fraction (47 mg) described above was applied to a column of aprotinin sepharose (Sigma, catalog # 42268, 1.5 X 10 cm), previously equilibrated with 20 mM Tris HCl buffer pH 7.0. Once loaded the column was washed with equilibration buffer (100 ml), and then eluted with 60 ml of 50 mM sodium acetate buffer pH 5.0 containing 500 mM sodium chloride. The flow rate was 1.0 ml/min throughout. Eluted fractions (4 ml) were monitored at 280 nm, analysed using the Bradford protein assay, and examined for APP C-terminal processing activity as described in Example 8, using recombinant APP derived by expression in a baculo virus system. […] Active fractions from the purification of the P-2 fraction on aprotinin-sepharose were pooled, dialyzed against 50 mM Tris-HCl pH 7.5 and applied to a mono-Q column (HR 5/5), previously equilibrated with dialysis buffer. Once loaded, the column was eluted essentially as described in Method 1. above. Active fractions (2 ml), were monitored for A 280 nm, total protein (Bradford assay), and for their capacity for baculo virus derived APP C-terminal processing. […] Pools X, Y, and Z were each concentrated to either 2 ml (pool X and Y) or 3.6 ml (pool z) and separately applied to a Superdex 75 column (Pharmacia, Piscataway NJ.) previously equilibrated with 50 mM Tris-HCl pH 7.5, containing 150 mM sodium chloride. Once loaded, the column was eluted with equilibration buffer. Chromatography was performed at a flow rate of 1.0 ml/min throughout. Fractions (1 ml) were monitored for A 280 nm, total protein (Bradford assay) and for C-terminal processing of baculo expressed APP. The gel filtration was calibrated by chromatography of each of the following standard proteins: Thyroglobulin (670 kDa), bovine gamma globulin (158 kDa), ovalbumin (44 kDa), myoglobin (17.5 kDa) and vitamin B 12 (1.35 kDa).

SMILES: CC(C)CC(=O)N[C@H](C(=O)N[C@H](C(=O)N[C@@H](CC(C)C)[C@@H](O)CC(=O)N[C@@H](C)C(=O)N[C@@H](CC(C)C)[C@@H](O)CC(=O)O)C(C)C)C(C)C [pepstatin A] (Isovaleryl-VV[Sta]A[Sta]-OH)
- Inhibition of peptidase reaction catalyzed by the P-2 enzyme preparation [1]: inhibited
- Inhibition of peptidase reaction catalyzed by Cathepsin D [2]: inhibited
- Inhibitor sensitivity of the pool Y protease (APP degradation) [3]: unaffected
